As a reminder, the Ki is a dissociation constant, usually derived from enzyme kinetics or from competition with a known ligand. As a reminder, the IC50 is the point on the concentration scale where inhibition reaches its midpoint. Higher therefore signals a need for much substance.

Our source for the Ki and IC50 values is patent US20250248998A1, “LRRK2 Inhibitors” (Brenig Therapeutics, Inc., priority 2022, published 2025).

In assay [1] the target is T1, LRRK2 WT (Homo sapiens, UniProt Q5S007). The assay is described as follows: Enzymatic activity inhibition against LRRK2 WT (ADP-Glo kinase assay, LRRKtide substrate). Details: purchased SignalChem Biotech, Inc. L10-11G-10. In kind it is biochemical. The following applies: recombinant LRRK2 WT 36 nM, ATP, 1 h at rt, average Ki. As for the experimental part:
Example B. Primary Assays Used to Determine Potency of the LRRK2 Inhibition
Assay for Determining Enzymatic Activity Inhibition Against LRRK2 WT.
Compound activity was determined using recombinant LRRK2 WT protein (SignalChem Biotech, Inc., Cat #L10-11G-10) and LRRKtide substrate (SignalChem Biotech, Inc., Cat #L10-58) in an in vitro enzymatic reaction. The enzymatic reaction was carried out in assay buffer (40 mM TRIS-HCl pH 7.4, 20 mM MgCl2, 0.05 mM DTT, 0.1 mg/mL BSA). The compounds were dispensed into a 384 well Diamond Well Plate (Axigen, Cat #P-384-120SQ-C-S) using the Biomek FX liquid handling system at 80× solutions of compounds in DMSO. The 2× Protein-Substrate mix (final concentration 36 nM of LRRK2 WT and 0.8 μg/μL of LRRKtide) was prepared in the 1× Assay buffer and 4 μL of mixture per well was added into the 384-well white Reaction plate with NBS (Corning, Cat #CLS4513). The 4 μL of LRRKtide substrate w/o LRRK2 WT in the 1× buffer was used for a negative control. Plates were centrifuged for 1 min at 200 g. Next the compounds were added to Reaction plate using Biomek station via following steps: 1 μL of 80× compounds (in DMSO) were mixed thoroughly with 39 μL of 2×10 μM ATP in Assay Buffer, then 4 μL of this mixture was added to Reaction plate with 4 μL of Protein-Substrate mix. Plates were centrifuged for 1 min at 200 g and incubated for 1 hour at rt. Then, 4 μL per well of ADP-Glo reagent (Promega, ADP-Glo™ Kinase Assay, Cat #V9102) was added. Plates were incubated for 30 minutes at rt. Then, 8 μL per well of Kinase detection reagent (Promega, ADP-Glo™ Kinase Assay, Cat #V9102) was added and the luminescence signal was measured with a microplate reader. The % inhibition was then used to calculate the Ki values. The average Ki values are shown in Table B, wherein “A” corresponds to Ki<10.0 nM, “B” corresponds to 10.0 nM K Ki<20.0 nM, “C” 20.0 nM K Ki<50.0 nM, “D” corresponds to 50.0 nM K Ki<100.0 nM and “E” corresponds to Ki>100.0 nM.
(In general: In ADP-Glo the light output rises with the ADP produced.)
Target sequence in this assay (Q5S007 970-2527 limits assumed): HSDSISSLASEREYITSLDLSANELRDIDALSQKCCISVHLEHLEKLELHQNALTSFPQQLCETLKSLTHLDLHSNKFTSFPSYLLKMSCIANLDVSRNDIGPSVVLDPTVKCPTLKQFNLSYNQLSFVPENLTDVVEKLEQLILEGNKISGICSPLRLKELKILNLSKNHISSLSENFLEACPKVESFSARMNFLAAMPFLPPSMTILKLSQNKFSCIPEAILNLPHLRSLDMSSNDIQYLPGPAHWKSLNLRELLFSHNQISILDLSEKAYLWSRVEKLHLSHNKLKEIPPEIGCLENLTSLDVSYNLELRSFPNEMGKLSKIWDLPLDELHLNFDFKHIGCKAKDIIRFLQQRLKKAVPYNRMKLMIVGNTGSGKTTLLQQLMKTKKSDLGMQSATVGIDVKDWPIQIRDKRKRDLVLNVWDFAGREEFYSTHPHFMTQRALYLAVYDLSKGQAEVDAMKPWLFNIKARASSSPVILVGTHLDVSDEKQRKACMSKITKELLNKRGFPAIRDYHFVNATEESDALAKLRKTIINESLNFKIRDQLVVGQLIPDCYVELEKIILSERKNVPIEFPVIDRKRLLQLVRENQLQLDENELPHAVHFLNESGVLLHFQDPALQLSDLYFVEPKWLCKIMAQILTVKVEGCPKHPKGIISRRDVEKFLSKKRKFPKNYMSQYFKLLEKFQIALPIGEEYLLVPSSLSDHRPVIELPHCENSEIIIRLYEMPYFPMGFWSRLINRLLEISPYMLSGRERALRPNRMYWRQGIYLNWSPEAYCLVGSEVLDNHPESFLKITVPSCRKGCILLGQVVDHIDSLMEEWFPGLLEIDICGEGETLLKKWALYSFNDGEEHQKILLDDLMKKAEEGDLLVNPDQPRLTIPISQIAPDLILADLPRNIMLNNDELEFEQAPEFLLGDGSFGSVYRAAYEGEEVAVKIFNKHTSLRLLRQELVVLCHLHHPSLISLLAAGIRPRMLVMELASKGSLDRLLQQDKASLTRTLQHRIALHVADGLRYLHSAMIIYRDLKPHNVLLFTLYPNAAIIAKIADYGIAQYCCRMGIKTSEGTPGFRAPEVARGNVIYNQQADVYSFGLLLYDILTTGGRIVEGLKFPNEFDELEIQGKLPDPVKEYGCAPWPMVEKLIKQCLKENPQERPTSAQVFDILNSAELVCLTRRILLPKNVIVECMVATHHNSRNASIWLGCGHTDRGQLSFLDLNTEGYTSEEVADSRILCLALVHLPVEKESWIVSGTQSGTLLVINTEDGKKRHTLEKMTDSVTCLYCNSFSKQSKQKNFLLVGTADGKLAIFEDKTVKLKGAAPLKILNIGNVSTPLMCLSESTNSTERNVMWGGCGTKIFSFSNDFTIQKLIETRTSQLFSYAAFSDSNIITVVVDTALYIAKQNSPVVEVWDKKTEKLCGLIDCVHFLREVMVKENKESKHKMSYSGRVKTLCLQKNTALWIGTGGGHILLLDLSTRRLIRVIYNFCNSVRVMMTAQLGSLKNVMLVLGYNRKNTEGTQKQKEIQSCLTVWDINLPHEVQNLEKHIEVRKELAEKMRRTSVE

Assay [2] deals with T2, LRRK2[G2019S] (Homo sapiens, UniProt Q5S007, G2019S). The assay is described as follows: Enzymatic activity inhibition against LRRK2[G2019S] (ADP-Glo kinase assay, LRRKtide substrate). Format: biochemical. The arrangement: purchased SignalChem Biotech, Inc. L10-12GG-10. As to conditions: recombinant LRRK2[G2019S] 36 nM, ATP, 1 h at rt, average Ki. As to the method: Example A. Primary Assays Used to Determine Potency of the LRRK2 Inhibition
Assay for Determining Enzymatic Activity Inhibition Against LRRK2[G2019S].
Compound activity was determined using recombinant LRRK2[G2019S] protein (SignalChem Biotech, Inc., Cat #L10-12GG-10) and LRRKtide substrate (SignalChem Biotech, Inc., Cat #L10-58) in an in vitro enzymatic reaction. The enzymatic reaction was carried out in assay buffer (40 mM TRIS-HCl pH 7.4, 20 mM MgCl2, 0.05 mM DTT, 0.1 mg/mL BSA). The compounds were dispensed into a 384 well Diamond Well Plate (Axigen, Cat #P-384-120SQ-C-S) using the Biomek FX liquid handling system at the 80× solutions of compounds in DMSO. The 2× Protein-Substrate mix (final concentration 36 nM of LRRK2[G2019S] and 0.8 μg/μL of LRRKtide) was prepared in 1× Assay buffer and 4 μL of mixture per well was added into the 384-well white Reaction plate with NBS (Corning, Cat #CLS4513). The 4 μL of LRRKtide substrate w/o LRRK2[G2019S] in the 1× buffer was used for a negative control. Plates were centrifuged for 1 min at 200 g. Next the compounds were added to the reaction plate using Biomek station via following steps: 1 μL of 80× compounds (in DMSO) were mixed thoroughly with 39 μL of 2×10 μM ATP in Assay Buffer, then 4 μL of this mixture was added to Reaction plate with 4 μL of Protein-Substrate mix. Plates were centrifuged for 1 min at 200 g and incubated for 1 h at rt. Then, 4 μL per well of ADP-Glo reagent (Promega, ADP-Glo™ Kinase Assay, Cat #V9102) was added. Plates were incubated for 30 min at rt. Then, 8 μL per well of Kinase detection reagent (Promega, ADP-Glo™ Kinase Assay, Cat #V9102) was added and the luminescence signal was measured with a microplate reader. The luminescence signal was detected with CLARIOstar Plus (BMG LABTECH) microplate reader. The % inhibition was then used to calculate the Ki values. The average Ki values are shown in Table A, wherein “A” corresponds to Ki<5.0 nM, “B” corresponds to 5.0 nM≤Ki<10.0 nM, “C” 10.0 nM≤Ki<50.0 nM, “D” corresponds to 50.0 nM≤Ki<100.0 nM and “E” corresponds to Ki>100.0 nM.
Target sequence in this assay (Q5S007 970-2527 G2019S limits assumed): as the sequence (Q5S007 970-2527 limits assumed) above, with G1050S counted along it

In assay [3] the target is T1, LRRK2 WT. Briefly: Cell-based NanoBRET target engagement assay in HEK293 cells transfected with LRRK2 WT-NanoLuc fusion vector. Details: expressed in transfected cells; host or cells: HEK293 (ATCC). As to conditions: compound treatment 1 h. As for the experimental part: (§1) Example C. Cell-Based NanoBRET Target Engagement Assay in 11EK293 Cells Transiently Transfected with LRRK2 WT- or LRRK2 (G2019S)-Nano Luc Fusion Vector
(§2) H1EK293 (ATCC) cells were transfected with […] LRRK2 WT or LRRK2 (G2019S) and 9 μg transfection carrier DNA. The transfected cells were treated with the compounds (starting at 1 μM, 10-dose with 3-fold dilution) and reference compounds CEP-701 or Staurosporine (starting at 1 μM, 10-dose with 3-fold dilution); compound treatment time: 1 h. LRRK2 WT and LRRK2 (G2019S) target engagement was measured by NanoBRET assay. Curve fits were performed only when % NanoBret signal at the highest concentration of compounds was less than […]. Assay format: 384-well format, 4000 cells/well. The IC50 values are shown in Table C, wherein “A” corresponds to IC50≤50.0 nM, “B” corresponds to 50.0 nM≤IC50<100.0 nM, “C” corresponds to 100.0 nM≤IC50.
Target sequence in this assay (Q5S007 whole entry): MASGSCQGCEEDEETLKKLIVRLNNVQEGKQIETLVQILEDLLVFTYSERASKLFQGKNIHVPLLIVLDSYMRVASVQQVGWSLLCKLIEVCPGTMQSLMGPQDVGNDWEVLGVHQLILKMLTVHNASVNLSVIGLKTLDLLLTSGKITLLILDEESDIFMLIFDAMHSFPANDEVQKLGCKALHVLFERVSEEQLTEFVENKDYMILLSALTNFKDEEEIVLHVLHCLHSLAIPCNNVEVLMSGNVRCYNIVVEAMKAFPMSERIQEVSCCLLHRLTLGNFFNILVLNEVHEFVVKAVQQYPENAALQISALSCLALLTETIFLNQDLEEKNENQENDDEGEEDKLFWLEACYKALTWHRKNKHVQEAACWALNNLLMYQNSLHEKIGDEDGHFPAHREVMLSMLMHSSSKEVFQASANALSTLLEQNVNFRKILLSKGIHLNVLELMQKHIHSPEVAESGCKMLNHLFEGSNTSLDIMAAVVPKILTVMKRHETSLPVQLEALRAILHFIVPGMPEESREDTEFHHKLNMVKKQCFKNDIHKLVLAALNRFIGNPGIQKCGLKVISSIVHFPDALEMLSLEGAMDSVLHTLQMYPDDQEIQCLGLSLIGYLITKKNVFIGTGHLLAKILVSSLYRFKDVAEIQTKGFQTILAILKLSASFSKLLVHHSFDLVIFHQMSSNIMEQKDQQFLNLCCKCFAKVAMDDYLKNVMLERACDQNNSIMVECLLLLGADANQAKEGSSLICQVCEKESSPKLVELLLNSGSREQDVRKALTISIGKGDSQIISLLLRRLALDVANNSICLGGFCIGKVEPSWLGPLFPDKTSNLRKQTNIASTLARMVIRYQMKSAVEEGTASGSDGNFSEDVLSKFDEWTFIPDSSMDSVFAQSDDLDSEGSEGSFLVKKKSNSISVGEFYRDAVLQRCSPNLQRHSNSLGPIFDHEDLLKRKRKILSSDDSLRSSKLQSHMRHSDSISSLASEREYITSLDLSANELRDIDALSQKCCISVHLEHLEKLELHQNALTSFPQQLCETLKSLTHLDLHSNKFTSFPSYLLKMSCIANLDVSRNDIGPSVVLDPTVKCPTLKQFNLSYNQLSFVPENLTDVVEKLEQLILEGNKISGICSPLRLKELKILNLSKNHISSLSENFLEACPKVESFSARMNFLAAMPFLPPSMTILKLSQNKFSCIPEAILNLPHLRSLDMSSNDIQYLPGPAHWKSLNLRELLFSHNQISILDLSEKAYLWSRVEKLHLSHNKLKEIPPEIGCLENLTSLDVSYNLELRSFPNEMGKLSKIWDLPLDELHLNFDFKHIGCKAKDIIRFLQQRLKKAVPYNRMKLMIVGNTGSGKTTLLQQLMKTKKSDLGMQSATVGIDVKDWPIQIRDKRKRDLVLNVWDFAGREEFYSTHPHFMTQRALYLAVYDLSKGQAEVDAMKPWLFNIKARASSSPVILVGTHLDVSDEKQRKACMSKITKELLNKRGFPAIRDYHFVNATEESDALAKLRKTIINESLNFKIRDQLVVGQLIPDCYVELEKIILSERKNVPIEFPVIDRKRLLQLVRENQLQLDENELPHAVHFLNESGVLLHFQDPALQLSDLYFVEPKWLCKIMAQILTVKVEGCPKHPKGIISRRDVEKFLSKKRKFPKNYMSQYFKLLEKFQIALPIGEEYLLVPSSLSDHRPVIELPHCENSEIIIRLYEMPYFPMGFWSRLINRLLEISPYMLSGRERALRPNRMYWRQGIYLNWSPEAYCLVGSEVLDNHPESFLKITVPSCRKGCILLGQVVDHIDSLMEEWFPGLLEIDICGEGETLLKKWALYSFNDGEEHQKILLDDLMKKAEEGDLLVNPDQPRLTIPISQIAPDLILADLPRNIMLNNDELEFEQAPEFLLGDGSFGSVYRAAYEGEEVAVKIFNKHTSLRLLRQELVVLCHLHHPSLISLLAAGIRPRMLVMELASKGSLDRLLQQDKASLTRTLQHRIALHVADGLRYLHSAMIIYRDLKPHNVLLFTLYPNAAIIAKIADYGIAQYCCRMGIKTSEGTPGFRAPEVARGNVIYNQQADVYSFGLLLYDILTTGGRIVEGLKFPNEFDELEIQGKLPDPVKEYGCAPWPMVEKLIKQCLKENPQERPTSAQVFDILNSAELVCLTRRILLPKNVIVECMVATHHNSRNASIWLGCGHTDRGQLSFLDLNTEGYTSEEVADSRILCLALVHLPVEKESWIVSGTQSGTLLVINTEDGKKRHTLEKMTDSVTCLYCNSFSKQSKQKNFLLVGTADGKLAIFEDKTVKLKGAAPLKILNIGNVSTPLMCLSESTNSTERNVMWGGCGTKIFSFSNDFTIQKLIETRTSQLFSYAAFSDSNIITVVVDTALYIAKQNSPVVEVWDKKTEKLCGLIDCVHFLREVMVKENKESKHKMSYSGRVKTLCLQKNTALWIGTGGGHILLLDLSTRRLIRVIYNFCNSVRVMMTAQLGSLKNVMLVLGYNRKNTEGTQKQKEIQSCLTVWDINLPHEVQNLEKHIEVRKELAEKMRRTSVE

Assay [4] concerns the target T2, LRRK2[G2019S]. Briefly: Cell-based NanoBRET target engagement assay in HEK293 cells transfected with LRRK2 (G2019S)-NanoLuc fusion vector. Details: expressed in transfected cells; host or cells: HEK293 (ATCC). As to conditions: compound treatment 1 h. As for the experimental part:
as §1, §2
Target sequence in this assay (Q5S007 whole entry G2019S): as the sequence (Q5S007 whole entry) above, with G2019S counted along it

As for `Cc1cc2[nH]nc(-c3cc(N4CCOCC4)c(=O)n(C)n3)c2cc1OC(C)C` [Compound 26, 6-(5-isopropoxy-6-methyl-1H-indazol-3-yl)-2-methyl-4-morpholino-pyridazin-3-one], the inhibitory constant (Ki) at LRRK2 WT [1] is at most 10 nM; at LRRK2[G2019S] [2] it was 10 to 50 nM. Moreover, the IC50 against LRRK2 WT [3] and against LRRK2[G2019S] [4] was at least 100 nM throughout.
As to `CC(C)Cn1nc(-c2n[nH]c3ccc(OC(C)C)cc23)cc(N2CCOCC2)c1=O` [Compound 18, 2-isobutyl-6-(5-isopropoxy-1H-indazol-3-yl)-4-morpholino-pyridazin-3-one], the Ki is at most 10 nM at LRRK2 WT [1] and 5 to 10 nM at LRRK2[G2019S] [2]. Also, the IC50 on LRRK2 WT [3] and on LRRK2[G2019S] [4] was at least 100 nM in each case.
For the compound `Cn1nc(-c2n[nH]c3ccc(OC4CCC4)cc23)cc(N2CCOCC2)c1=O` [Compound 28, 6-[5-(cyclobutoxy)-1H-indazol-3-yl]-2-methyl-4-morpholino-pyridazin-3-one], the results for the inhibition constant (Ki) at LRRK2 WT [1] and on LRRK2[G2019S] [2] were at most 10 nM and at most 5 nM, respectively. Besides, the IC50 at LRRK2 WT [3] and on LRRK2[G2019S] [4] was at least 100 nM in each case.
For the compound `CC(C)Oc1ccc2[nH]nc(-c3cc(N4CCOCC4)c(=O)n(C4CCCC4)n3)c2c1` [Compound 16, 2-cyclopentyl-6-(5-isopropoxy-1H-indazol-3-yl)-4-morpholino-pyridazin-3-one], the values for the Ki at LRRK2 WT [1] and at LRRK2[G2019S] [2] were at most 10 nM and 5 to 10 nM, respectively. Moreover, the IC50 against LRRK2 WT [3] was 50 to 100 nM; against LRRK2[G2019S] [4], at most 50 nM.
As to `CC(C)Oc1ccc2[nH]nc(-c3cnnc(N4CCOCC4)c3)c2c1` [Compound 4, 4-[5-(5-isopropoxy-1H-indazol-3-yl)pyridazin-3-yl]morpholine], the results for the Ki on LRRK2 WT [1] and at LRRK2[G2019S] [2] were at most 10 nM and at most 5 nM, respectively. For the same compound, the figures for the IC50 on LRRK2 WT [3] and against LRRK2[G2019S] [4] were 50 to 100 nM and at most 50 nM, respectively.
`CCn1nc(-c2n[nH]c3ccc(OC(C)C)cc23)cc(N2CCOCC2)c1=O` [Compound 23, 2-ethyl-6-(5-isopropoxy-1H-indazol-3-yl)-4-morpholino-pyridazin-3-one]: the Ki was at most 10 nM on LRRK2 WT [1] and at most 5 nM at LRRK2[G2019S] [2]. Further, the IC50 was at least 100 nM against LRRK2 WT [3] and 50 to 100 nM on LRRK2[G2019S] [4].
Take `CC(C)Oc1ccc2[nH]nc(-c3cc(N4CCOCC4)c(=O)n(C(C)C)n3)c2c1` [Compound 21, 6-(5-isopropoxy-1H-indazol-3-yl)-2-isopropyl-4-morpholino-pyridazin-3-one]: the results for the Ki at LRRK2 WT [1] and on LRRK2[G2019S] [2] were at most 10 nM and 5 to 10 nM, respectively. Further, the IC50 is at least 100 nM against LRRK2 WT [3] and 50 to 100 nM on LRRK2[G2019S] [4].
Take `Cn1nc(-c2n[nH]c3ccc(OC4CC4)cc23)cc(N2CCOCC2)c1=O` [Compound 30, 6-[5-(cyclopropoxy)-1H-indazol-3-yl]-2-methyl-4-morpholino-pyridazin-3-one]: the Ki on LRRK2 WT [1] was at most 10 nM; on LRRK2[G2019S] [2] it was at most 5 nM. Further, the IC50 against LRRK2 WT [3] and against LRRK2[G2019S] [4] was at least 100 nM throughout.
Turning to `CC(C)Oc1ccc2[nH]nc(-c3cc(N4CCOCC4)c(=O)n(C4CC4)n3)c2c1` [Compound 19, 2-cyclopropyl-6-(5-isopropoxy-1H-indazol-3-yl)-4-morpholino-pyridazin-3-one], the inhibitory constant (Ki) on LRRK2 WT [1] is at most 10 nM; on LRRK2[G2019S] [2], at most 5 nM. Moreover, the figures for the IC50 against LRRK2 WT [3] and on LRRK2[G2019S] [4] were 50 to 100 nM and at most 50 nM, respectively.
Regarding `CC(C)Oc1ccc2[nH]nc(-c3cnnc(N4CC(O)C4)c3)c2c1` [Compound 1, 1-[5-(5-isopropoxy-1H-indazol-3-yl)pyridazin-3-yl]azetidin-3-ol], the Ki at LRRK2 WT [1] was in the range of 10 to 20 nM; at LRRK2[G2019S] [2], 5 to 10 nM.
With `C[C@@H]1CN(c2cc(-c3n[nH]c4ccc(OC5(C)CC5)cc34)nn(C3CC3)c2=O)C[C@H](C)O1` [Compound 51, 2-cyclopropyl-4-[(2S,6R)-2,6-dimethylmorpholin-4-yl]-6-[5-(1-methylcyclopropoxy)-1H-indazol-3-yl]pyridazin-3-one], the Ki at LRRK2 WT [1] is at most 10 nM; on LRRK2[G2019S] [2] it was at most 5 nM. The IC50 at LRRK2 WT [3] and against LRRK2[G2019S] [4] was at most 50 nM each time.
As for `Cn1nc(-n2ncc3ccc(C(C)(C)C#N)cc32)cc(N2CCOCC2)c1=O` [Compound 43, 2-methyl-2-[1-(1-methyl-5-morpholino-6-oxo-pyridazin-3-yl)indazol-6-yl]propanenitrile], the figures for the Ki on LRRK2 WT [1] and at LRRK2[G2019S] [2] were 50 to 100 nM and above 100 nM, respectively.
